According to ChEMBL document CHEMBL1201862, “PubChem BioAssay data set” (2004):
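In this assay, cells in 96-well plates receive the compound at five concentrations for 48 hours. Endpoints are linearly interpolated between the surrounding concentrations. The concentration for 50% growth inhibition is given as GI50.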 Calls of active or inactive are those of the source. Rule as the data show it: active = GI50 up to about 1.1 µM and inactive = higher. Residues, ends and D or L forms follow the SMILES beside them. *: point of attachment. X38 = O=C(c1ccc(-c2ccc(Cl)cc2Cl)o1)*

How the values were obtained:
Test in all cases: NCI tumour cell line growth inhibition, 48 h
[1] = test system: 786-0
[2] = test system: A498
[3] = test system: A549
[4] = test system: ACHN
[5] = test system: BT-549
[6] = test system: CAKI-1
[7] = test system: CCRF-CEM
[8] = test system: COLO 205
[9] = test system: DU-145
[10] = test system: HCC 2998
[11] = test system: HCT-116
[12] = test system: HCT-15
[13] = test system: HL-60
[14] = test system: HOP-92
[15] = test system: HT-29
[16] = test system: Hs-578T
[17] = test system: K562
[18] = test system: KM12
[19] = test system: LOX IMVI
[20] = test system: M14
[21] = test system: MCF7
[22] = test system: MDA-MB-231
[23] = test system: MDA-MB-435
[24] = test system: MDA-N
[25] = test system: MOLT-4
[26] = test system: Malme-3M
[27] = test system: NCI-H226
[28] = test system: NCI-H23
[29] = test system: NCI-H460
[30] = test system: NCI-H522
[31] = test system: NCI/ADR-RES
[32] = test system: OVCAR-4
[33] = test system: OVCAR-5
[34] = test system: OVCAR-8
[35] = test system: PC-3
[36] = test system: RPMI-8226
[37] = test system: RXF 393
[38] = test system: SF-268
[39] = test system: SF-295
[40] = test system: SF-539
[41] = test system: SK-MEL-28
[42] = test system: SK-MEL-2
[43] = test system: SK-MEL-5
[44] = test system: SK-OV-3
[45] = test system: SN12C
[46] = test system: SNB-19
[47] = test system: SNB-75
[48] = test system: SW-620
[49] = test system: T47D
[50] = test system: TK-10
[51] = test system: U-251
[52] = test system: UACC-257
[53] = test system: UACC-62
[54] = test system: UO-31

Compound: COC(=O)C(CC(C)C)NC(=O)C(Cc1ccccc1)NC(=O)C1CCCN1C(=O)C(CO)NC(=O)c1ccc(-c2ccc(Cl)cc2Cl)o1 (centres undefined) (X38-SPFL-OMe; configuration not given here)
- GI50 [1]: 25.1 µM (inactive)
- GI50 [2]: 24.5 µM (inactive)
- GI50 [3]: 26.1 µM (inactive)
- GI50 [4]: 26.5 µM (inactive)
- GI50 [5]: 25.6 µM (inactive)
- GI50 [6]: 28.3 µM (inactive)
- GI50 [7]: 36.8 µM (inactive)
- GI50 [8]: 16 µM (inactive)
- GI50 [9]: 38 µM (inactive)
- GI50 [10]: 13.2 µM (inactive)
- GI50 [11]: 22.6 µM (inactive)
- GI50 [12]: 24 µM
- GI50 [13]: 19.5 µM (inactive)
- GI50 [14]: 21.2 µM (inactive)
- GI50 [15]: 17.6 µM (inactive)
- GI50 [16]: 35.5 µM (inactive)
- GI50 [17]: 27.8 µM (inactive)
- GI50 [18]: 34 µM (inactive)
- GI50 [19]: 21.8 µM (inactive)
- GI50 [20]: 19.9 µM (inactive)
- GI50 [21]: 27.5 µM (inactive)
- GI50 [22]: 15.5 µM (inactive)
- GI50 [23]: 28.3 µM (inactive)
- GI50 [24]: 35.5 µM (inactive)
- GI50 [25]: 22.2 µM (inactive)
- GI50 [26]: 42.1 µM (inactive)
- GI50 [27]: 19.1 µM (inactive)
- GI50 [28]: 27.7 µM (inactive)
- GI50 [29]: 17.3 µM (inactive)
- GI50 [30]: 28.1 µM (inactive)
- GI50 [31]: 28.8 µM (inactive)
- GI50 [32]: 31.2 µM (inactive)
- GI50 [33]: 21.9 µM (inactive)
- GI50 [34]: 36.4 µM (inactive)
- GI50 [35]: 31.6 µM (inactive)
- GI50 [36]: 17.1 µM (inactive)
- GI50 [37]: 17.8 µM (inactive)
- GI50 [38]: 40.3 µM (inactive)
- GI50 [39]: 19.5 µM (inactive)
- GI50 [40]: 24.3 µM (inactive)
- GI50 [41]: 52.1 µM (inactive)
- GI50 [42]: 16.9 µM (inactive)
- GI50 [43]: 17.3 µM (inactive)
- GI50 [44]: 1.11 µM (active)
- GI50 [45]: 32.1 µM (inactive)
- GI50 [46]: 21.9 µM (inactive)
- GI50 [47]: 25.7 µM (inactive)
- GI50 [48]: 30.7 µM (inactive)
- GI50 [49]: 28.9 µM (inactive)
- GI50 [50]: 24.8 µM (inactive)
- GI50 [51]: 21.4 µM (inactive)
- GI50 [52]: 20.2 µM (inactive)
- GI50 [53]: 23.8 µM (inactive)
- GI50 [54]: 23.9 µM (inactive)
